Assays:
[1] = tested on: Phakopsora pachyrhizi, strain with amino acid substitution F129L in the mitochondrial cytochrome b protein; assay: Protective control of soybean rust on soybeans (PHAKPA P2); assay type: in vivo; details: for PHAKPA (F129L) Disease level (%), P2 at 16 ppm: Table C4, untreated >90
[2] = tested on: Phakopsora pachyrhizi, strain with amino acid substitution F129L in the mitochondrial cytochrome b protein; assay: Protective control of soybean rust on soybeans (PHAKPA P6); assay type: in vivo
Pyricularia oryzae = assay: microbe, parasite or virus in culture; assay type: cell-based; details: 0.016 ppm
[3] = tested on: Alternaria solani, Qo inhibitor-resistant isolate containing F129L in the mitochondrial cytochrome b protein; assay: Micro titer plate test, activity against Alternaria solani causing early blight (ALTESO), F129L; assay type: cell-based; details: Table C11a; 0.016 ppm
[4] = protective P2, 4 ppm, soybean rust F129L strain
[5] = protective P2, 16 ppm, soybean rust F129L strain
[6] = Table C4, 16 ppm, untreated >85
[7] = protective P6, 4 ppm, soybean rust F129L strain
[8] = protective P6, 16 ppm, soybean rust F129L strain
[9] = Table C2, protective, inoculation six days after spraying, 4 ppm, % diseased leaf area on soybean, untreated 99
[10] = Table 1, protective P2, 4 ppm, F129L strain
[11] = Table 1, protective P2, 16 ppm, F129L strain
[12] = Table 1, protective P6, 4 ppm, F129L strain
[13] = Table 1, protective P6, 16 ppm, F129L strain

Row | Compound | % PHAKPA (F129L) Disease level, P2 at 4 ppm [1, 10] [%] | % PHAKPA (F129L) Disease level, P2 at 16 ppm [1, 11] [%] | % PHAKPA (F129L) Disease level, P6 at 4 ppm [2, 12] [%] | % PHAKPA (F129L) Disease level, P6 at 16 ppm [2, 13] [%] | also measured
1 | CO/N=C(/C(=O)OC)c1cccc(C)c1CO/N=C(\C)c1ccccc1F [Ex. 1, Methyl (2E)-2-[2-[[(E)-3-(2-fluorophenyl)ethylideneamino]oxymethyl]-3-methyl-phenyl]-2-methoxyimino-acetate] |  |  |  |  | PHAKPA (F129L) Disease level (%), P2 at 16 ppm ([1]; 16 ppm): 28%; % PHAKPA (F129L) Disease level, P2 at 4 ppm [1, 4]: 80%; % PHAKPA (F129L) Disease level, P2 at 16 ppm [1, 5]: 27%; PHAKPA (F129L) Disease level (%), P6 at 16 ppm [2, 6]: 47%; % PHAKPA (F129L) Disease level, P6 at 4 ppm [2, 7]: 90%; % PHAKPA (F129L) Disease level, P6 at 16 ppm [2, 8]: 56%
2 | CNC(=O)/C(=N/OC)c1cccc(C)c1CO/N=C(\C)c1cccc(C(F)(F)F)c1 [Ex. 8] |  |  |  |  | PHAKPA (F129L) Disease level (%) P6 at 4 ppm ([2]; P6 at 4 ppm, untreated 75%): 1%; PHAKPA (F129L) Disease level (%) P6 at 4 ppm [2, 9]: 13%; Fungal growth (%) PYRIOR (Pyricularia oryzae; Table C11a): 13%; Fungal growth (%) ALTESO F129L [3]: 52%
3 | CO/N=C(/C(=O)OC)c1cccc(C)c1CO/N=C(\C)c1cccc(C(F)(F)F)c1 [Ex. 9] |  |  |  |  | PHAKPA (F129L) Disease level (%) P2 at 4 ppm ([1]; Table C1, protective, inoculation 2 days after spraying, 4 ppm, % diseased leaf area on soybean): 35%; PHAKPA (F129L) Disease level (%) P2 at 4 ppm ([1]; Table C7b, 4 ppm, untreated 92): 6%; PHAKPA (F129L) Disease level (%), P6 at 16 ppm ([2]; P6 at 16 ppm, untreated 75%): 1%; PHAKPA (F129L) Disease level (%), P6 at 16 ppm ([2]; Table C1, protective, inoculation six days after spraying, 16 ppm, % diseased leaf area on soybean): 4%; Fungal growth (%) PYRIOR (Pyricularia oryzae; Table C9): 38%
4 | CO/N=C(/C(=O)OC)c1cccc(C)c1CO/N=C(\C)c1cccc(OC(F)(F)F)c1 [Ex. 28] |  |  |  |  | PHAKPA (F129L) Disease level (%), P2 at 16 ppm ([1]; 16 ppm): 30%; % PHAKPA (F129L) Disease level, P2 at 16 ppm [1, 5]: 0%; PHAKPA (F129L) Disease level (%), P6 at 16 ppm [2, 6]: 18%; % PHAKPA (F129L) Disease level, P6 at 16 ppm [2, 8]: 0%
5 | CO/N=C(/C(=O)OC)c1cccc(C)c1CO/N=C(\C)c1cccc(C)c1 [Ex. 76] |  |  |  |  | PHAKPA (F129L) Disease level (%), P6 at 16 ppm ([2]; P6 at 16 ppm, untreated 75%): 4%; PHAKPA (F129L) Disease level (%), P6 at 16 ppm [2, 6]: 0%
6 | CNC(=O)/C(=N/OC)c1cccc(C)c1CO/N=C(\C)c1cc(F)ccc1F [Ex. 131] |  |  |  |  | PHAKPA (F129L) Disease level (%), P2 at 16 ppm ([1]; 16 ppm): 0%; % PHAKPA (F129L) Disease level, P2 at 4 ppm [1, 4]: 0%; % PHAKPA (F129L) Disease level, P2 at 16 ppm [1, 5]: 0%; PHAKPA (F129L) Disease level (%), P6 at 16 ppm [2, 6]: 0%; % PHAKPA (F129L) Disease level, P6 at 4 ppm [2, 7]: 2%; % PHAKPA (F129L) Disease level, P6 at 16 ppm [2, 8]: 0%
7 | CO/C=C(/C(=O)OC)c1cccc(C)c1CO/N=C(\C)c1cccc(C(F)(F)F)c1 [Ex. 231] | 0 | 0 | 2 | 0 | PHAKPA (F129L) Disease level (%) P2 at 4 ppm ([1]; Table C2, protective, inoculation 2 days after spraying, 4 ppm, % diseased leaf area on soybean, untreated 100): 0%; PHAKPA (F129L) Disease level (%) P6 at 4 ppm [2, 9]: 2%
8 | CO/C=C(/C(=O)OC)c1cccc(C)c1CO/N=C(\C)c1ccccc1C(F)(F)F [Ex. 244] | 14 | 0 | 15 | 2 | PHAKPA (F129L) Disease level (%), P2 at 16 ppm ([1]; 16 ppm): 0%; PHAKPA (F129L) Disease level (%), P6 at 16 ppm [2, 6]: 2%
9 | CO/N=C(/C(=O)OC)c1cccc(C)c1CO/N=C(\C)c1c(F)ccc(C(F)(F)F)c1F [compound 156] |  |  |  |  | % PHAKPA (F129L) Disease level, P2 at 4 ppm [1, 4]: 27%; % PHAKPA (F129L) Disease level, P2 at 16 ppm [1, 5]: 0%; % PHAKPA (F129L) Disease level, P6 at 4 ppm [2, 7]: 47%; % PHAKPA (F129L) Disease level, P6 at 16 ppm [2, 8]: 3%
10 | CNC(=O)/C(=N/OC)c1cccc(C)c1CO/N=C(\C)c1ccc(OC)cc1OC(F)(F)F [compound 337] | 9 | 0 | 13 | 1 | 
11 | CNC(=O)/C(=N/OC)c1cccc(C)c1CO/N=C(\C)c1c(F)cc(Br)cc1OC(F)(F)F [compound 355] | 34 | 7 | 48 | 4 | 
12 | COC=C(C(=O)OC)c1cccc(C)c1CON=C(C)c1cc(F)c(F)cc1CC(F)(F)F [compound 405] | 97 | 27 | 70 | 27 | 
13 | CNC(=O)/C(=N/OC)c1cccc(C)c1CO/N=C(\C)c1ccc(-c2ccccc2)cc1C(F)(F)F [compound 413] | 40 | 15 | 33 | 15 | 
14 | CO/N=C(/C(=O)OC)c1cccc(C)c1CO/N=C(\C)c1ccc(-c2ccccc2)cc1C(F)(F)F [compound 414] | 53 | 9 | 53 | 15 | 
15 | CON=C(C)c1ccc(C(C)=NOCc2c(C)cccc2C(=NOC)C(=O)OC)c(OC(F)(F)F)c1 [compound 418] | 70 | 33 | 73 | 57 | 
16 | CO/N=C(/C(=O)OC)c1cccc(C)c1CO/N=C(\C)c1ccc(-c2ccc(F)cc2)cc1C(F)(F)F [compound 425] | 27 | 28 | 53 | 40 | 
17 | CNC(=O)/C(=N/OC)c1cccc(C)c1CO/N=C(\C)c1ccc(-c2ccc(F)cc2)cc1C(F)(F)F [compound 426] | 7 | 1 | 27 | 10 | 
18 | CNC(=O)/C(=N/OC)c1cccc(C)c1CO/N=C(\C)c1ccc(Cl)c(F)c1OC(F)(F)F [compound 449] | 33 | 10 | 57 | 9 | 
19 | COC=C(C(=O)OC)c1cccc(C)c1CON=C(C)c1ccc(F)c(F)c1OC(F)(F)F [compound 450] | 3 | 1 | 4 | 1 | 
20 | CO/C=C(/C(=O)OC)c1cccc(C)c1CO/N=C(\C)c1ccc(Cl)c(F)c1OC(F)(F)F [compound 452] | 60 | 6 | 70 | 14 | 
21 | CNC(=O)/C(=N/OC)c1cccc(OC)c1CO/N=C(\C)c1cccc(C(F)(F)F)c1 [compound 461] | 26 | 2 | 52 | 6 | 
22 | CO/C=C(/C(=O)OC)c1cccc(C)c1CO/N=C(\C)c1ccccc1OC(F)(F)F [compound 462] | 37 | 6 | 55 | 10 | 
23 | CO/C=C(/C(=O)OC)c1cccc(C)c1CO/N=C(\C)c1ccc(OC(F)(F)F)cc1Cl [compound 463] | 6 | 0 | 3 | 0 | 
24 | CO/C=C(/C(=O)OC)c1cccc(C)c1CO/N=C(\C)c1ccc(OC)cc1C(F)(F)F [compound 464] | 1 | 0 | 8 | 0 | 
25 | CO/N=C(/C(=O)OC)c1cccc(C)c1CO/N=C(\C)c1cccc(OC(F)(F)F)c1 [drawing 939, reference compound] |  |  |  |  | Fungal growth (%) PYRIOR (Pyricularia oryzae; Table C8a): 100%
26 | CNC(=O)/C(=N/OC)c1ccccc1CO/N=C(\C)c1cc(F)ccc1F [reference compound] |  |  |  |  | PHAKPA (F129L) Disease level (%), P2 at 16 ppm ([1]; 16 ppm): 1%; PHAKPA (F129L) Disease level (%), P6 at 16 ppm [2, 6]: 22%

Reference: patent publication US20230172205A1 (priority 2020, published 2023)
